Source: patent US20170030926A1, “MARKER OF NEUROPATHIC GAUCHER'S DISEASE AND METHODS OF USE THEREOF” (Yeda Research and Development Co. Ltd., priority 2014, published 2017)

What was measured:
[1] = Therapeutic effect on the brain in Type 3 GD patients on long-term ERT and miglustat; format: in vivo, human; conditions: long-term treatment
Description: Spinal fluid samples were collected for biomarker discovery from patients with Type 3 GD and age-matched control subjects.

GPNMB = GPNMB levels in CSF and brain homogenates of CBE treated mice by ELISA; format: in vivo
Experimental: (§1) C57BL/6OlaHsd mice were used as another model of nGD, in which the disease is induced by intra-peritoneal (IP) injection with 100 mg/Kg/day conduritol b epoxide ([…], calbiochem), an irreversible GCase inhibitor.
Mice were anesthetized (100mg/kg Ketamine and 10 mg/Kg xylazine) and CSF was aspired from the Cisterna magna using glass needles. Brain tissues were removed and lysed in ˜6 volumes of Ripa buffer (150 mM sodium chloride, 1.0% Triton X-100, 0.5% sodium deoxycholate, 0.1% SDS, 50 mM Tris, pH 8.0) supplemented with a protease inhibitor mixture (Sigma). Following homogenization, samples were centrifuged at 4500gav for 5 min at 4° C., and the supernatant was collected. Protein level was quantified using the BCA protein assay reagent (Pierce Chemical Co.) GPNMB was measured using the mouse GPNMB ELISA kit (R&D systems) According to manufacturer's protocol.
(§2) Correlation of CSF levels of GPNMB and nGD symptoms was further verified using an additional mouse model of GD, where mice are induced for GD by injections of conduritol b epoxide (CBE), a GCase inhibitor. 100 mg/Kg/day of CBE were daily injected into mice starting on day 15 post-natal. On day 30 the mice were divided into three groups: “CBE D15-30” in which CBE injections were ceased on day 30, “CBE D15-30; PBS D31-41” in which CBE injections were ceased on day 30 and the mice continued to receive phosphate buffered saline (PBS) injections until day 41, and “CBE D15-41”, in which CBE injections were continued to day 41. An additional group of mice was injected with PBS during the entire experiment (“PBS”) and served as a control (FIG. 4A). Mice body weight, a simple indicator of disease progression, was measured daily during the experiment and the results are shown in FIG. 4B.
CSF was aspirated from the Cisterna magna of the mice and GPNMB levels were measured in both CSF (FIG. 4C) and brain homogenates (FIG. 4D) by ELISA. […] Remarkably, GPNMB levels rapidly declined during the recovery period. More specifically, GPNMB levels in the CSF and brain increased upon injection of CBE from day 15-30 and to a higher extent with injection until day 41.

[2] = Body weight of mice induced for GD by daily CBE injections; format: in vivo, C57BL/6OlaHsd mice
Experimental: as §1, §2

[3] = compared with mice continuously treated with CBE until day 41

SMILES | therapeutic effect on the brain [1] | GPNMB level in CSF (GPNMB; CBE treated mice vs PBS control, ELISA) | GPNMB level in brain (GPNMB; CBE treated mice vs PBS control, brain homogenates, ELISA) | GPNMB level in CSF on day 41 after cessation of CBE on day 30 (GPNMB; [3]) | GPNMB level in brain on day 41 after cessation of CBE on day 30 (GPNMB; [3]) | time until body weight began to decrease after beginning CBE injections ([2]; 100 mg/Kg/day IP daily from day 15 post-natal, body weight as indicator of disease progression) [days] | body weight course after CBE injections ceased ([2]; CBE D15-30, PBS D31-41 group) | body weight course with continued CBE injections ([2]; CBE D15-41 group, 100 mg/Kg/day)
CCCCN1C[C@H](O)[C@@H](O)[C@H](O)[C@H]1CO [miglustat] | neither had any therapeutic effect on the brain | – | – | – | – | – | – | –
O[C@H]1[C@H](O)[C@@H](O)[C@@H]2O[C@@H]2[C@@H]1O (racemic) [CBE, conduritol b epoxide] | – | marked elevation | marked elevation | significantly lower level | significantly lower level | 10 to 12 | began to gain weight | continued to decrease until day 41
